Assay results as given in US20040170705A1, “Compositions and methods for non-insulin glucose uptake” (priority 2001, published 2004).
Entries after “also recorded” stand apart in the source; their conditions may differ.

What was measured:
skeletal muscle cells = conditions: cited from earlier work
L6 muscle cells = experiment: glucose uptake in L6 muscle cells (2-NBDG fluorescence); type: cell-based
Protocol: The permeate portion of GMM was tested for glucose uptake in L6 muscle cells. L6 cells were grown as monolayers in Dulbecco's modified Eagle's medium (DMEM) containing 1 mM glutamine, 1 mM pyruvate and 25 mM glucose. The medium was supplemented with 5% fetal calf serum (FCS). Experiments were undertaken in 48-well plates seeded from pre-confluent flasks with 50 000 cells per well. The cells were grown to confluence and the medium was changed to DMEM containing 0.5% FCS and 2.5 mM glucose (L6 Myo Medium) for at least 76 hrs to induce differentiation of L6 cells and formation of L6 myotubes. Myotubes were then incubated with test substances for 30 minutes—Protocol SMM, or in Dulbecco's PBS supplemented with 20 mM Hepes and 2 mM glucose without serum—Serum-free Medium (SFM) Protocol as described by Fryer et al. ((Activation of glucose transport by AMP-activated protein kinase via stimulation of Nitric oxide synthase, Diabetes, 49(12), 1978-85, 2000, Fryer LGD, et al).
Next, 30 uM of 2-NBDG was added for 2 minutes at 22C. Subsequently, cell culture medium was removed and cells were washed twice with cold DPBS. Then, cells were lysed in 0.5% SDS. Fluorescence was measured at 466/542 nm (excitation/emission) using 100 ul of cell lysate in 2 ml of water.
Cells were cultured, and treated in L6 Myo Medium (SSM)—SSM Protocol or in serum-free medium (SFM-DPBS containing 20 mM Hepes, 2 mM glucose)—SFM Protoci as described by Fryer et al. Glucose uptake was measured by adding 30 uM of 2-NBDG for 2′ at 22C. Experiments were performed in duplicates.
L-NMMA has been used in the experiment to verify whether GMM-induced glucose transport in L6 cells is or is not inhibited by NOS inhibitors, thus mimicking AICAR—induced mechanism of increased glucose transport. Fryer's experimental set up was adopted, consisting of pre-treatment of cells with inhibitor for 30 minutes in DPBS and after that with agonists like AICAR or in our case GMM for next 30 minutes at 37C before performing glucose uptake.

## NC(=O)c1ncn([C@@H]2O[C@H](COP(=O)(O)O)[C@@H](O)[C@H]2O)c1N [AICAR, 5′-aminoimidazole 4-carboxamide 1-ribonucleotide]
Skeletal muscle cells; skeletal muscle
  effect on glucose uptake by pharmacological activation of AMPK: increase in glucose uptake

## NC(=O)c1[nH]cnc1N [AICA]
L6 muscle cells; L6 cells, 30 minutes treatment, uptake 2 minutes at 22C
  effect on glucose uptake: stimulation

## CC(=O)O.CNC(=N)NCCC[C@H](N)C(=O)O [L-NMMA, NG-methyl-L-arginine, acetate salt]
Skeletal muscle cells; NOS inhibitors, skeletal muscle cells
  effect on the increase of glucose transport after activation of AMPK: completely blocks
L6 muscle cells; L-NMMA 300 uM pre-treatment 30 minutes in DPBS, acetate salt
  effect on permeate/GMM-induced glucose uptake: inhibits; also recorded: blocks
L6 muscle cells; pre-treatment with L-NMMA 30 minutes in DPBS, then AICA 30 minutes
  effect on AICA-stimulated glucose uptake: inhibition

## insulin: insulin used to treat L6 cells
L6 muscle cells; culture medium supplemented with 0.5% FCS (SSM), by average
  glucose uptake increase: 100-120%
L6 muscle cells; serum-free medium (DPBS)
  glucose uptake increase: 40-50%
